Results taken from US8012982B2, “Modulators of HCV replication” (priority 2004, dated 2011).
Where two headings read alike, the source gives them in different places.

Tests used:
pHCVNeo17.RG replicon = experiment: microbe, parasite or virus in culture; format: cell-based; conditions: Hepatitis C virus, 96 h; subgenomic pHCVNeo17.RG, Con1, R2884G; 10AIFN cells, four days after transfection
[1] = tested on: HCV replicon in resistant clone 10AB3; experiment: microbe, parasite or virus in culture; format: cell-based; conditions: Hepatitis C virus, Cell-ELISA, read-out: IC50 Compound (Ib)
pHCVNeo17.m30 replicon = format: cell-based; conditions: replicon pHCVNeo17.m30: H2057R
[2] = tested on: non-adapted replicons derived from the BK isolate of HCV; format: cell-based
[3] = tested on: HCV replicons derived from the Con1 isolate in human HeLa cells; format: cell-based
[4] = tested on: HCV replicon in resistant clone 10AB2; experiment: microbe, parasite or virus in culture; format: cell-based; conditions: Hepatitis C virus, Cell-ELISA, read-out: IC50 Compound (Ib)
[5] = tested on: HCV replicon in resistant clone 10AB7; experiment: microbe, parasite or virus in culture; format: cell-based; conditions: Hepatitis C virus, Cell-ELISA, read-out: IC50 Compound (Ib)
cell proliferation = conditions: relative to concentrations effective on the replicon
pHCVNeo17.m10 replicon = experiment: microbe, parasite or virus in culture; format: cell-based; conditions: pHCVNeo17.m10 replicon in 10AIFN cells, cultured 4 days, Cell-ELISA, read-out: Replicon Inhibition Range IC50
pHCVNeo17.m50 replicon = experiment: microbe, parasite or virus in culture; format: cell-based; conditions: Hepatitis C virus; replicon pHCVNeo17.m50: K@2039, R2129W; read-out: Cmpd Ib IC50
[6] = relative to concentrations effective on the replicon
pHCVNeo17.wt replicon = format: cell-based; conditions: for Replicon Activation Yes/No: pHCVNeo17.wt replicon in 10AIFN cells, cultured 4 days, Cell-ELISA
pHCVNeo17.m29 replicon = experiment: microbe, parasite or virus in culture; format: cell-based; conditions: Hepatitis C virus, read-out: Cmpd Ib IC50 (μM)
[7] = tested on: HCV replicon in HBI10A cells; experiment: microbe, parasite or virus in culture; format: cell-based; conditions: Hepatitis C virus
pHCVNeo17.m5 replicon = experiment: microbe, parasite or virus in culture; format: cell-based; conditions: Hepatitis C virus; replicon pHCVNeo17.m5: K@2039; read-out: Cmpd Ib IC50
pHCVNeo17.SI replicon = experiment: microbe, parasite or virus in culture; format: cell-based; conditions: Hepatitis C virus, 96 h; subgenomic pHCVNeo17.SI, Con1, S2204I; 10AIFN cells, four days after transfection
[8] = tested on: HCV replicons derived from the Con1 isolate in mouse hepatoma cell line Hepa1-6; format: cell-based
pHCVNeo17.m36 replicon = experiment: microbe, parasite or virus in culture; format: cell-based; conditions: Hepatitis C virus; replicon pHCVNeo17.m36: K@2039, Y2065H; read-out: Cmpd Ib IC50
[9] = tested on: pFL.m10 genomic replicon (adapted full length HCV genome); format: cell-based, HCV isolate Con1
[10] = tested on: non-adapted full length Con1 genomes; format: cell-based; conditions: lesser extent than with the corresponding replicons
pHCVNeo17.m21 replicon = experiment: microbe, parasite or virus in culture; format: cell-based; conditions: Hepatitis C virus; replicon pHCVNeo17.m21: K@2039, S2404P; read-out: Cmpd Ib IC50
[11] = tested on: HCV replicon in resistant clone 10AB11; experiment: microbe, parasite or virus in culture; format: cell-based; conditions: Hepatitis C virus, Cell-ELISA, read-out: IC50 Compound (Ib)
pBK-RMSI replicon = experiment: microbe, parasite or virus in culture; format: cell-based; conditions: Hepatitis C virus, 96 h; subgenomic pBK-RMSI, BK, R1496M + S2204I; 10AIFN cells, four days after transfection
NS5A protein = NS5A protein (Hepatitis C virus genotype 1b, UniProt Q9WMX2, INS2039K); format: cell-based; conditions: HBI10A cells, 2 μM compound (Ib), pulse-chase
pHCVNeo17.m35 replicon = format: cell-based; conditions: replicon pHCVNeo17.m35: Y2065H
[12] = tested on: HCV replicons in resistant cell clones; format: cell-based; conditions: fold increase of IC50

Compound: CC(C)(C)OC(=O)N1CCN(c2ccc(C(=O)Nc3ccc(O)cc3)cc2)CC1 [Example 101, tert-butyl 4-(4-{[(4-hydroxyphenyl)amino]carbonyl}phenyl)piperazine-1-carboxylate]
- IC50 (pHCVNeo17.RG replicon): < 50 nM
- IC50 [1]: > 2000 nM
- Cmpd Ib IC50 (μM) (pHCVNeo17.m30 replicon): activation
- Activation of replication of non-adapted BK replicons [2]: activated replication
- Inhibition of HCV replicons in HeLa cells [3]: inhibited with comparable potencies
- IC50 [4]: > 2000 nM
- IC50 [5]: > 2000 nM
- Inhibition of cell proliferation, 14C thymidine incorporation (cell proliferation): only at concentrations two orders of magnitude higher than those effective on the replicon
- IC50 (pHCVNeo17.m10 replicon; Hepatitis C virus, 96 h): < 1000 nM
- IC50 (pHCVNeo17.m50 replicon): > 2000 nM
- Toxicity, MTT cytotoxicity assay [6]: only at concentrations two orders of magnitude higher than those effective on the replicon
- Replicon Activation Yes/No (pHCVNeo17.wt replicon): Yes
- Cmpd Ib IC50 (μM) (pHCVNeo17.wt replicon; replicon pHCVNeo17.Wt, no mutations): ^bactivation
- IC50 (pHCVNeo17.m29 replicon): > 2 µM
- IC50 ([7]; HBI10A replicon cells, read-out: IC50, dose-dependent inhibition of HCV replication): 120 ± 60 nM
- IC50 ([7]; parental clone HBI10A, Cell-ELISA, read-out: IC50 Compound (Ib)): 100 ± 50 nM
- IC50 (pHCVNeo17.m5 replicon): 100 nM
- IC50 (pHCVNeo17.SI replicon): 100 nM
- Inhibition of HCV replicons in Hepa1-6 cells [8]: inhibited with comparable potencies
- IC50 (pHCVNeo17.m36 replicon): > 2000 nM
- Inhibition of replication of an adapted full length HCV genome [9]: inhibited with comparable potency
- Stimulation of replication of non-adapted full length Con1 genomes [10]: stimulated replication
- IC50 (pHCVNeo17.m21 replicon): 38 nM
- IC50 [11]: > 2000 nM
- IC50 (pBK-RMSI replicon): 650 nM
- Conversion of NS5A p56 into hyperphosphorylated p58 (NS5A protein): the rate and the extent of conversion of the p56 into p58 were reduced
- Cmpd Ib IC50 (μM) (pHCVNeo17.m35 replicon): No effect
- IC50 in resistant cell clones relative to parental cells [12]: at least ten times higher

Compound: O=C(Nc1ccc(O)cc1)c1ccc(N2CCN(C(=O)OCc3ccccc3)CC2)cc1 [Example 216, benzyl 4-(4-{[(4-hydroxyphenyl)amino]carbonyl}phenyl)piperazine-1-carboxylate]
- IC50 (pHCVNeo17.m10 replicon; Hepatitis C virus, 96 h): < 1000 nM
- Replicon Activation Yes/No (pHCVNeo17.wt replicon): Yes

Compound: CC(C)(C)OC(=O)N1CCC(c2ccc(C(=O)Nc3ccc(O)cc3)cc2)CC1 [Example 602, tert-butyl 4-(4-{[(4-hydroxyphenyl)amino]carbonyl}phenyl)piperidine-1-carboxylate]
- IC50 (pHCVNeo17.m10 replicon; Hepatitis C virus, 96 h): > 1000 nM
- Replicon Activation Yes/No (pHCVNeo17.wt replicon): No

Compound: C=Cc1ccc(NC(=O)c2ccc(N3CCN(C(=O)OC(C)(C)C)CC3)cc2)cc1 [Example 115, tert-butyl 4-(4-{[(4-vinylphenyl)amino]carbonyl}phenyl)piperazine-1-carboxylate]
- IC50 (pHCVNeo17.m10 replicon; Hepatitis C virus, 96 h): > 1000 nM
- Replicon Activation Yes/No (pHCVNeo17.wt replicon): No

Compound: CC(=O)c1cccc(NC(=O)c2ccc(N3CCN(C(=O)OC(C)(C)C)CC3)cc2)c1 [Example 108, tert-butyl 4-(4-{[(3-acetylphenyl)amino]carbonyl}phenyl)piperazine-1-carboxylate]
- IC50 (pHCVNeo17.m10 replicon; Hepatitis C virus, 96 h): > 1000 nM
- Replicon Activation Yes/No (pHCVNeo17.wt replicon): No

Compound: O=C(Nc1ccc(O)cc1)c1ccc(N2CCN(C(=O)C3CCCCC3)CC2)cc1 [Example 401, 4-[4-(cyclohexylcarbonyl)piperazin-1-yl]-N-(4-hydroxyphenyl)benzamide]
- IC50 (pHCVNeo17.m10 replicon; Hepatitis C virus, 96 h): < 1000 nM
- Replicon Activation Yes/No (pHCVNeo17.wt replicon): No

Compound: CC(C)(C)OC(=O)N1CCN(c2ccc(C(=O)Nc3ccc(C(=O)c4ccccc4)cc3)cc2)CC1 [Example 112, tert-butyl 4-(4-{[(4-benzoylphenyl)amino]carbonyl}phenyl)piperazine-1-carboxylate]
- IC50 (pHCVNeo17.m10 replicon; Hepatitis C virus, 96 h): < 1000 nM
- Replicon Activation Yes/No (pHCVNeo17.wt replicon): No

Compound: CC(C)(C)OC(=O)N1CCN(c2ccc(NC(=O)c3ccc(O)cc3)cc2)CC1 [Example 603, tert-butyl 4-{4-[(4-hydroxybenzoyl)amino]phenyl}piperazine-1-carboxylate]
- IC50 (pHCVNeo17.m10 replicon; Hepatitis C virus, 96 h): > 1000 nM
- Replicon Activation Yes/No (pHCVNeo17.wt replicon): No

Compound: CC(C)(C)NC(=O)N1CCN(c2ccc(C(=O)Nc3ccc(O)cc3)cc2)CC1 [Example 302, N-(tert-butyl)-4-(4-{[(4-hydroxyphenyl)amino]carbonyl}phenyl)piperazine-1-carboxamide]
- IC50 (pHCVNeo17.m10 replicon; Hepatitis C virus, 96 h): < 1000 nM
- Replicon Activation Yes/No (pHCVNeo17.wt replicon): Yes

Compound: CC(C)(C)C(=O)N1CCN(c2ccc(C(=O)Nc3ccc(O)cc3)cc2)CC1 [Example 403, 4-[4-(2,2-dimethylpropanoyl)piperazin-1-yl]-N-(4-hydroxyphenyl)benzamide]
- IC50 (pHCVNeo17.m10 replicon; Hepatitis C virus, 96 h): < 1000 nM
- Replicon Activation Yes/No (pHCVNeo17.wt replicon): No

Compound: CC(C)(C)OC(=O)N1CCN(c2ccc(C(=O)Nc3ccc(/C=C/c4ccc(O)cc4)cc3)cc2)CC1 [Example 116, tert-butyl 4-{4-[({4-[(E)-2-(4-hydroxyphenyl)vinyl]phenyl}amino)carbonyl]phenyl}piperazine-1-carboxylate]
- IC50 (pHCVNeo17.m10 replicon; Hepatitis C virus, 96 h): < 1000 nM
- Replicon Activation Yes/No (pHCVNeo17.wt replicon): No

Compound: CC(C)COC(=O)N1CCN(c2ccc(C(=O)Nc3ccc(O)cc3)cc2)CC1 [Example 201, isobutyl 4-(4-{[(4-hydroxyphenyl)amino]carbonyl}phenyl)piperazine-1-carboxylate]
- IC50 (pHCVNeo17.m10 replicon; Hepatitis C virus, 96 h): > 1000 nM
- Replicon Activation Yes/No (pHCVNeo17.wt replicon): No

Compound: C[C@@H](NC(=O)N1CCN(c2ccc(C(=O)Nc3ccc(O)cc3)cc2)CC1)c1ccccc1 [Example 306, 4-(4-{[(4-hydroxyphenyl)amino]carbonyl}phenyl)-N-[(1R)-1-phenylethyl] piperazine-1-carboxamide]
- IC50 (pHCVNeo17.m10 replicon): < 1000 nM
- Replicon Activation Yes/No (pHCVNeo17.wt replicon): No

Compound: O=C(Nc1ccc(O)cc1)c1ccc(N2CCN(S(=O)(=O)/C=C/c3ccccc3)CC2)cc1 [Example 503, N-(4-hydroxyphenyl)-4-(4-{[(E)-2-phenylvinyl]sulfonyl}piperazin-1-yl)benzamide]
- IC50 (pHCVNeo17.m10 replicon; Hepatitis C virus, 96 h): > 1000 nM
- Replicon Activation Yes/No (pHCVNeo17.wt replicon): No

Compound: CC(C)(C)OC(=O)N1CCN(c2ccc(C(=O)Nc3cccc(Br)c3)cc2)CC1 [Example 103, tert-butyl 4-(4-{[(3-bromophenyl)amino]carbonyl}phenyl)piperazine-1-carboxylate]
- IC50 (pHCVNeo17.m10 replicon; Hepatitis C virus, 96 h): < 1000 nM
- Replicon Activation Yes/No (pHCVNeo17.wt replicon): No

Compound: COc1ccc(CNC(=O)N2CCN(c3ccc(C(=O)Nc4ccc(O)cc4)cc3)CC2)cc1 [Example 303, 4-(4-{[(4-hydroxyphenyl)amino]carbonyl}phenyl)-N-(4-methoxybenzyl)piperazine-1-carboxamide]
- IC50 (pHCVNeo17.m10 replicon; Hepatitis C virus, 96 h): < 1000 nM
- Replicon Activation Yes/No (pHCVNeo17.wt replicon): Yes

Compound: CC(=O)Oc1ccc(NC(=O)c2ccc(N3CCN(C(=O)OC(C)(C)C)CC3)cc2)cc1 [Example 123, tert-butyl 4-[4-({[4-(acetyloxy)phenyl]amino}carbonyl)phenyl]piperazine-1-carboxylate]
- IC50 (pHCVNeo17.m10 replicon; Hepatitis C virus, 96 h): < 1000 nM
- Replicon Activation Yes/No (pHCVNeo17.wt replicon): Yes
